# Results from patent US20040259192A1, “Method for cleaving the human growth hormone gh” (priority 2001, published 2004).
# “Also recorded” adds a separate entry of the source. Square brackets hold non-standard residues; d marks the D form. Ends that are not written are not given here. * marks the point of attachment. Sta = CC(C)C[C@H](N)[C@@H](O)CC(=O)O; Isovaleryl = CC(C)CC(=O)*
# Assays:
# [1] = molecular target: MMP-3 (Homo sapiens, UniProt P08254); experiment: activation or inhibition of MMP-3 by substances; type: biochemical; parameters: inhibition (MMP-3): dose or concentration left out as unconfirmed; settings: for inhibition at 10 µM: with 10 μM
# MMP-3 (Homo sapiens, UniProt P08254), sequence (P08254 100-477): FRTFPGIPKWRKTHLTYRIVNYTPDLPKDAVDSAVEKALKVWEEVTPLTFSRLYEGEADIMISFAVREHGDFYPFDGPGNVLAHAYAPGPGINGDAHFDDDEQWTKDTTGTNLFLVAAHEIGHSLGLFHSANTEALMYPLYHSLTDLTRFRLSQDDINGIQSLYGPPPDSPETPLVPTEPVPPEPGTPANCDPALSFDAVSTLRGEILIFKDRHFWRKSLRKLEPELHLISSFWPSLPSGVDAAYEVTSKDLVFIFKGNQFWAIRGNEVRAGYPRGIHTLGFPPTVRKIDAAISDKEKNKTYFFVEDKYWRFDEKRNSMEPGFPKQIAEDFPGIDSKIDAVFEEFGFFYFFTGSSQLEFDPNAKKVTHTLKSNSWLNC
# [2] = system: MMP-3; experiment: cleavage of human GH by MMP-3, SDS-PAGE, with or without protease inhibitors; type: biochemical; settings: for influence on GH cleavage by MMP-3: inhibitor added in place of phenanthroline, concentration not given
# Procedure: (§1) Human GH (SIGMA S-4776) was incubated with the recombinant catalytic domain of MMP-3 or with the activated full-length enzyme MMP-3 (EC 3.4.24.17) at a molar ratio of 50:1 at 37° C. overnight. 100 mM Tris-HCl, pH 7.5/100 mM NaCl/10 mM CaCl2/0.05% (w/v) Brij 35 served as incubation buffer. The following samples served as a control:
# 1. GH incubated with the same volume of buffer instead of MMP-3,
# 2. GH incubated with MMP-3 in the presence of 1 mM 1,10-phenanthroline (SIGMA P-9375) as MMP inhibitor.
# (§2) The reaction is stopped by the addition of ¼ volume of 5 times reducing Laemmli buffer and incubation at 90° C. for 4 minutes. The samples were subsequently separated on a 15% SDS polyacrylamide gel according to a generally known method. The proteins were prepared by means of coomassie or silver staining.
# [3] = molecular target: MMP-8 (Homo sapiens, UniProt P22894); experiment: cleavage of human GH by MMP-8, SDS-PAGE; type: biochemical; settings: method of Example 2
# MMP-8, sequence (P22894 101-467): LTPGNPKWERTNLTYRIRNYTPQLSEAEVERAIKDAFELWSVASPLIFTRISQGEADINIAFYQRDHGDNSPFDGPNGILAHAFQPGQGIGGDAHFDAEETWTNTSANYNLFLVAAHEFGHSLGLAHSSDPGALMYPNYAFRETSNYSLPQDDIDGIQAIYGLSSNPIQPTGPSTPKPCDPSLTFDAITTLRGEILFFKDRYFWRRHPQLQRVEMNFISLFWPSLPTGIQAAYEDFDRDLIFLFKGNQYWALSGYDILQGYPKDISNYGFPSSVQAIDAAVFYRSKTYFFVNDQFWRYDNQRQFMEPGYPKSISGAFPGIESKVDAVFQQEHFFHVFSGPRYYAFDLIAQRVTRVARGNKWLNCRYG
# Procedure: as §1, §2
# (§3) In accordance with the method shown in Example 2, other human MMPs were also tested for checking the specificity of the GH cleavage by MMP-3.
# [4] = molecular target: T1, MMP-2 (Homo sapiens, UniProt P08253); experiment: cleavage of human GH by MMP-2; type: biochemical
# T1 sequence (P08253 110-660): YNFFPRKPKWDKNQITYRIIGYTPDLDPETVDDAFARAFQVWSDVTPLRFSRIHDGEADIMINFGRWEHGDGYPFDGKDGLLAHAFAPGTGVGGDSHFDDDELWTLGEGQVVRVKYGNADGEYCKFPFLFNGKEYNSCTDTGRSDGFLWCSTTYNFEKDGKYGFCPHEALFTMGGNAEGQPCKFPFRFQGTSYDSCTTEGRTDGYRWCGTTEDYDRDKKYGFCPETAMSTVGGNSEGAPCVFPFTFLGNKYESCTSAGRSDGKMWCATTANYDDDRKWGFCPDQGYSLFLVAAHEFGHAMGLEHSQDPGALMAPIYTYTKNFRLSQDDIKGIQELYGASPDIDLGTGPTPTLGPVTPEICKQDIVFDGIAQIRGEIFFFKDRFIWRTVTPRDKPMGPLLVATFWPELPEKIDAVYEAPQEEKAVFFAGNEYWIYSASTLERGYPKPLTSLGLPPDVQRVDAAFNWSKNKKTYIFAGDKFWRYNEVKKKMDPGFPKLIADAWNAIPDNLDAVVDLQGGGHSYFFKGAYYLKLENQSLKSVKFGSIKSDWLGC
# [5] = molecular target: MMP-9 (Homo sapiens, UniProt P14780); experiment: cleavage of human GH by MMP-9, SDS-PAGE; type: biochemical; settings: activated MMP-9; long incubation periods, different enzyme concentrations
# MMP-9, sequence (P14780 107-707 limits assumed): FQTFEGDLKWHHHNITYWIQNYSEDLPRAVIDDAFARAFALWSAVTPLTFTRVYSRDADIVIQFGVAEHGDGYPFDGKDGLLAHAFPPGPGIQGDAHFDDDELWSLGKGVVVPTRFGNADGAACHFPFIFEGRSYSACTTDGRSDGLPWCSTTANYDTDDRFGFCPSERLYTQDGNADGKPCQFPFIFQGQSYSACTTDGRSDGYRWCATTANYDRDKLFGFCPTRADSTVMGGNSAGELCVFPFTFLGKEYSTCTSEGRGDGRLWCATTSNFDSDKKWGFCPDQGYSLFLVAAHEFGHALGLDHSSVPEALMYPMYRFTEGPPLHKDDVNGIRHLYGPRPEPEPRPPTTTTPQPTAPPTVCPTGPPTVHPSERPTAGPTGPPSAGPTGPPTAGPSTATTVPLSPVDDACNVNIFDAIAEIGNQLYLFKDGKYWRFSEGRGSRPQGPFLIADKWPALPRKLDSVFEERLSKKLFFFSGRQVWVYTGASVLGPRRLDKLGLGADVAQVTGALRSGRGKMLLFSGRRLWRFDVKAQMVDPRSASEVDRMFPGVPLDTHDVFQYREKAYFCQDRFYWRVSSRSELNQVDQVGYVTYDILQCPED
# Procedure: It was tested in an informing preliminary test whether MMP-9 can cleave human GH in vitro. As shown in Example 2, GH was in this case incubated with activated MMP-9 and subjected to PAA gel electrophoresis. […]
# as §1, §2, §3
# [6] = molecular target: MMP-14 (Homo sapiens, UniProt P50281); experiment: cleavage of human GH by MMP-14, SDS-PAGE; type: biochemical; settings: method of Example 2
# Procedure: as §1, §2, §3
# [7] = system: Human microvascular endothelial cells (HUVEC); experiment: proliferation of human microvascular endothelial cells (cell number, Coulter Counter); type: cell-based; settings: 24 hours
# Procedure: Human microvascular endothelial cells (HUVEC) of the 3rd passage were kindly provided by Dr. Jurgen Salvetter (Leipzig University). These cells were prepared according to the information furnished by Norman and Karasek (49). HUVEC were used up to the 9th passage for the proliferation experiments. HUVEC were tested up to confluence in RPMI 1640 medium with additions of 10% (v/v) tested endotoxin-deficient fetal calf serum (Biochrom), 2 mM L-glutamine (GIBCO), 25 μg/ml endothelial cell growth supplement (SIGMA), 50 μg/ml streptomycin plus 50 units/ml penicillin (Life Technologies). The confluent cells were harvested by means of 5% trypsin/0.2% EDTA (BIOCHROM) at 37° C. for 5 minutes. A suspension of 10,000 cells in RPMI 1640 medium plus 2% (v/v) tested endotoxin-deficient fetal calf serum (Biochrom), 2 mM L-glutamine (GIBCO), 50 μg/ml streptomycin plus 50 units/ml penicillin (Life Technologies) were transferred to 24-well plates coated with 30 μg/ml type I collagen from calf skin (IBFB). […] The cells were washed with the same medium after 24 hours of incubation and removed using trypsin/EDTA and the cell number was determined in a Coulter Counter. […]
molecule,measurement,setting,value
"O=c1[nH]c(=O)n(CC(S)CS)c2ccccc12 (racemic) [(R,S)-1-(2′,3′-dimercapto-prop-1′-yl)quinazoline-2,4(1H,3H)-dione]",inhibition at 4 µM,[1]; with 4.0 μM,75%
"O=c1c2ccccc2nc2n1CC(CS)S2 (racemic) [(R,S)-2-mercaptomethyl-2,3-dihydro-thiazolo[2,3-b]quinazoline-5-one]",inhibition at 10 µM,[1],50%
"CC1(CS)Cn2c(nc3ccccc3c2=O)S1 (racemic) [(R,S)-2-mercaptomethyl-2-methyl-2,3-dihydro-thiazolo[2,3-b]quinazoline-5-one]",inhibition (MMP-3),[1],60%
"O=c1c2ccc(Cl)cc2nc2n1CC(CS)S2 (racemic) [(R,S)-8-chloro-2-mercaptomethyl-2,3-dihydro-thiazolo[2,3-b]quinazoline-5-one]",inhibition at 10 µM,[1],80%
"CC(C)C[C@H](NC(=O)[C@H]1O[C@@H]1C(=O)O)C(=O)NCCCCN=C(N)N (relative stereo) [E-64, trans-epoxysuccinyl-L-leucylamido-(4-guanidino)butane]",influence on GH cleavage by MMP-3,[2],no influence
"O=S1(=O)NC(NCCS)=Nc2ccccc21 [3-(2′-mercaptoethylamino)-2H-1,2,4-benzothiadiazine-1,1-dioxide]",activation of MMP-3,[1],about 20%
"Cn1c(=O)n(CCCS)c(=O)c2ccccc21 [3-(3-mercaptopropyl)-1-methyl-(1H,3H)quinazoline-2,4-dione]",activation of MMP-3,[1],about 20%
"c1cnc2c(c1)ccc1cccnc12 [phenanthroline, 1,10-phenanthroline]",GH cleavage by MMP-3 in the presence of inhibitor,"[2]; 1 mM inhibitor, GH:MMP-3 50:1, 37° C. overnight, pH 7.5",not cleaved
"GH: Human GH, 22 kDa peptide hormone composed of a single polypeptide chain (SIGMA S-4776)",cleavage of GH by MMP-8,[3],no degrading effect
same,cleavage of GH by MMP-2,[4],"no, or only minor, degradative effects"
same,cleavage of GH by MMP-9,[5],not possible to prove cleavage; also recorded: no degrading effect
same,cleavage of GH by MMP-14,[6],no degrading effect
same,cleavage of GH by MMP-3,"[2]; molar ratio 50:1, 37° C. overnight, pH 7.5",cleaved by MMP-3 into two fragments of 16 kDa and 6 kDa; also recorded: cleaves GH into the typical 16 kDa fragment
same,proliferation of HUVEC,[7]; 40 ng/ml,marked proliferative effect
Isovaleryl-VV[Sta]A[Sta] [pepstatin A],influence on GH cleavage by MMP-3,[2],no influence
"bFGF: human recombinant bFGF (BIOCHROM), positive control [reference compound]",proliferation of HUVEC,[7]; 20 ng/ml,stimulates the proliferation
